Reference: PMC4995097, “Talin-KANK1 interaction controls the recruitment of cortical microtubule stabilizing complexes to focal adhesions” (eLife, 2016)

How the values were obtained:
[1] = tested on: focal adhesions in HeLa cells; experiment: TIRFM localization of GFP-tagged KANK1 constructs relative to focal adhesions; type: cell-based, human; details: live HeLa cells with mCherry- or TagRFP-paxillin
Description: HeLa Kyoto cell line was described previously ([Lansbergen et al., 2006]; [Mimori-Kiyosue et al., 2005]). HEK293T cells were purchased from ATCC; culture and transfection of DNA and siRNA into these cell lines was performed as previously described ([van der Vaart et al., 2013]). HaCaT cells were purchased at Cell Line Service (Eppelheim, Germany) and cultured according to manufacturer’s instructions. The cell lines were routinely checked for mycoplasma contamination using LT07-518 Mycoalert assay (Lonza, Switzerland).The identity of the cell lines was monitored by immunofluorescence-staining-based analysis with multiple markers. Blebbistatin was purchased from Enzo Life Sciences and used at 50 μM. Serum starvation in HeLa cells was done for 48 hr and focal adhesion assembly was stimulated by incubation with fetal calf serum-containing medium with or without blebbistatin for 2 hr. ROCK1 inhibitor Y-27632 was purchased at Sigma-Aldrich and used at 1 or 10 μM. Double stable HeLa cell line expressing GFP-KANK1 and TagRFP-paxillin was made by viral infection. We used a pLVIN-TagRFP-paxillin-based lentivirus and a pQC-GFP-KANK1-based retrovirus packaged in HEK293T cells using respectively Lenti-X HTX packaging and pCL-Ampho vectors. Antibiotic selection was applied to cells 48 hr after infection using 500 μg/ml G418 (Geneticin, Life Technologies) and 1 μg/ml puromycin (InvivoGen). […]

GFP-talin1 = experiment: Streptavidin pull down of BioGFP-KANK1 constructs with GFP-talin1, Western blot; type: binding, mouse; details: 4A mutation introduced into the construct; HEK293T cells, Figure 3A
From the text: BioGFP-tagged KANK1 mutants were constructed using PCR and pBioGFP-C1 vector as previously described ([van der Vaart et al., 2013]). Rescue constructs for BioGFP-tagged KANK1 were either based on the version previously described ([van der Vaart et al., 2013]) or a version obtained by PCR-based mutagenesis of the sequence […] to […]. mCherry-tagged paxillin construct was made by replacing GFP from pQC-GPXN ([Bouchet et al., 2011]) by mCherry (pmCherry-C1, Clontech). TagRFP-tagged paxillin construct was made by PCR-based amplification and cloning in pTagRFP-T-C1 (kind gift from Y. Mimori-Kiyosue, Riken Institute, Japan). HA-tagged KANK1 construct was generated by cloning KANK1 coding sequence into pMT2-SM-HA (gift of C. Hoogenraad, Utrecht University, The Netherlands). pLVX-IRES-Neo (pLVIN) vectors was constructed by cloning the IRES-neomycin resistance cassette from the pQCXIN plasmid (Clontech) into the pLVX-IRES-Puro plasmid (Clontech). […]
Streptavidin-based pull down assays of biotinylated proteins expressed using pBioGFP-C1 constructs transfected in HEK293T cells was performed and analyzed as previously described ([van der Vaart et al., 2013]). […] For RP-nanoLC-MS/MS, samples were resuspended in 10% formic acid (FA) / 5% DMSO and was analyzed using a Proxeon Easy-nLC100 (Thermo Scientific) connected to an Orbitrap Q-Exactive mass spectrometer. […]

KN domain: GFP-tagged KN domain of KANK1 (residues 30–68)
localization relative to FAs, endogenous KANK1/2 present (in words) [1]: strongly and specifically accumulated within FAs
effect of 4A mutation on interaction with talin1 (in words) (GFP-talin1): An even stronger reduction was observed
